One experiment has as its system rat mixed glial culture. The experiment is described as follows: Neurogenesis promoting effect in rat mixed glial culture (neuronal differentiation, beta-tubulin III ELISA). The format is cell-based. Particulars: 1 μM compound + rhIGF-1 100 ng/ml, 3 days; control (only rhIGF-1) = 100%; absorbance 450 nm. The procedure: The hippocampus and the cerebral cortex were excised from each of 3-day-old SD rats. A cell suspension was prepared therefrom using a neuron dispersion kit (Sumitomo Bakelite Co., Ltd., MB-X9901) and inoculated at concentration of 10^5 cells/well to a 96-well plate coated with type I collagen (AGC Techno Glass Co., Ltd., 4860-010). The cells were cultured in a growth medium (D-MEM/F12 containing 10% FBS and PS) at 37° C. for 4 days under 5% CO2 conditions.
After the culture, the medium was replaced by a differentiation medium (D-MEM/F12 containing PS), and rhIGF-1 (R&D Systems, 291-G1-250, final concentration: 100 ng/ml) and 1 μM compound were added thereto. The cells were further cultured for 3 days. The cultured cells were fixed in 4% paraformaldehyde-PBS (Muto Pure Chemicals Co., Ltd.), subjected to membrane permeation treatment with 0.1% Triton X-100 PBS, and blocked with Block Ace solution (DS Pharma Biomedical Co., Ltd., UK-B80). Anti-neuron-specific class III beta-tubulin Antibody (R&D Systems, MAB1195, clone Tuj-1) was diluted 1000-fold and used as a primary antibody. Anti-Mouse Ig, HRP-Linked F(ab′)2 Fragment Sheep (GE Healthcare, NA9310) was diluted 10000-fold and used as a secondary antibody. A plate washer (BIO-TEK INSTRUMENTS ELX405) was used in washing operation. TMB Microwell Peroxidase Substrate System (Kirkegaard & Perry Laboratories, 50-76-00) was used in color reaction, which was performed for 10 minutes and stopped by addition of 1 M phosphoric acid. Absorbance at 450 nm was measured using a plate reader (Labsystems Multiskan BICHROMATIC).
The rate of increase in the absorbance of the compound-supplemented group (compound+rhIGF-1) relative to that of a compound-unsupplemented group (control, only rhIGF-1) as 100% was determined in terms of % control.
Regarding `COc1ccc(N2CCOC(c3ccc(C(F)(F)F)cc3)C2)c(-c2ccc(N(C)C)cc2)n1` (single isomer, unassigned) [Example 5, 4-(6-methoxy-3-{2-[4-(trifluoromethyl)phenyl]morpholin-4-yl}pyridin-2-yl)-N,N-dimethylaniline], the “Ratio of absorbance of compound-supplemented group to control (%)” value worked out at 765%.
Still for that read-out and setting: the result for `COc1ccc(N2CCOC(c3ccc(C(F)(F)F)cc3)C2)c(-c2ccc(N(C)C)cc2)n1` (single isomer, unassigned) [Example 6, 4-(6-methoxy-3-{2-[4-(trifluoromethyl)phenyl]morpholin-4-yl}pyridin-2-yl)-N,N-dimethylaniline] reads 134%.

The same experiment, now with this note: Rattus norvegicus, 72 h, 1 μM compound + rhIGF-1 100 ng/ml, 3 days; control (only rhIGF-1) = 100%; absorbance 450 nm; read-out: Ratio of absorbance of compound-supplemented group to control (%).
Take `COc1ccc(N2CCOC(c3cccc(C(F)(F)F)c3)C2)c(-c2ccc(N(C)C)cc2)n1` (stereo not shown) [Example 2, 4-(6-methoxy-3-{2-[3-(trifluoromethyl)phenyl]morpholin-4-yl}pyridin-2-yl)-N,N-dimethylaniline]: the activity at 1 µM came to 448%.
On the same count and under the same terms, the result for `COc1ccc(C2CN(c3ccc(OC)nc3-c3ccc(N(C)C)cc3)CCO2)cc1` (stereo not shown) [Example 3, 4-{6-methoxy-3-[2-(4-methoxyphenyl)morpholin-4-yl]pyridin-2-yl}-N,N-dimethylaniline] reads 303%.
With `COc1ccc(N2CCOC(Cc3cccc(C(F)(F)F)c3)C2)c(-c2ccc(N(C)C)cc2)n1` (stereo not shown) [Example 9, 4-(6-methoxy-3-{2-[3-(trifluoromethyl)benzyl]morpholin-4-yl}pyridin-2-yl)-N,N-dimethylaniline], the activity at 1 µM worked out at 321%.
On the same count and under the same terms, the result for `CCOC(=O)N1CCN(c2ccc(OC)nc2-c2ccc(N(C)C)cc2)CC1c1ccc(OC)cc1` (stereo not shown) [Example 13, Ethyl 4-{2-[4-(dimethylamino)phenyl]-6-methoxypyridin-3-yl}-2-(4-methoxyphenyl)piperazine-1-carboxylate] reads 285%; that for `COc1ccc(C2CN(c3ccc(OC)nc3-c3ccc(N(C)C)cc3)CCN2)cc1` (stereo not shown) [Example 14, 4-{6-methoxy-3-[3-(4-methoxyphenyl)piperazin-1-yl]pyridin-2-yl}-N,N-dimethylaniline], 260%; that for `COc1ccc(N2CCN(c3ccc(Cl)cc3)CC2)c(-c2ccc(N(C)C)cc2)n1` [Example 24, 4-{3-[4-(4-chlorophenyl)piperazin-1-yl]-6-methoxypyridin-2-yl}-N,N-dimethylaniline], 462%.
For the compound `COc1ccc(N2CCN(c3ccc(OC)c(OC)c3)CC2)c(-c2ccc(N(C)C)cc2)n1` [Example 26, 4-{3-[4-(3,4-dimethoxyphenyl)piperazin-1-yl]-6-methoxypyridin-2-yl}-N,N-dimethylaniline], the activity at 1 µM stood at 259%.
Still for that read-out and setting: the result for `COc1ccc(CC2CN(c3ccc(OC)nc3-c3ccc(N(C)C)cc3)CCN2C)cc1` (stereo not shown) [Example 34, 4-{6-methoxy-3-[3-(4-methoxybenzyl)-4-methylpiperazin-1-yl]pyridin-2-yl}-N,N-dimethylaniline] reads 783%; that for `COc1ccc(N2CCN(c3ccc(OC)nc3-c3ccc(OC(F)(F)F)cc3)CC2)cc1` [Example 49, 1-(4-methoxyphenyl)-4-{6-methoxy-2-[4-(trifluoromethoxy)phenyl]pyridin-3-yl}piperazine], 887%.
As for `COc1ccc(-c2nc(OC)ccc2N2CCN(c3ccc(OC)cc3)CC2)cc1` [Example 50, 1-[6-methoxy-2-(4-methoxyphenyl)pyridin-3-yl]-4-(4-methoxyphenyl)piperazine], the activity at 1 µM is 546%.
For the compound `COc1ccc(N2CCN(c3ccc(OC)nc3-c3ccc(C(C)C)cc3)CC2)cc1` [Example 51, 1-{6-methoxy-2-[4-(1-methylethyl)phenyl]pyridin-3-yl}-4-(4-methoxyphenyl)piperazine], the activity at 1 µM is 856%.
For the compound `COc1ccc(N2CCN(c3ccc(OC)nc3-c3ccc(OC(C)C)cc3)CC2)cc1` [Example 52, 1-{6-methoxy-2-[4-(1-methylethoxy)phenyl]pyridin-3-yl}-4-(4-methoxyphenyl)piperazine], the activity at 1 µM came out at 731%.
On to `COc1ccc(N2CCN(c3ccc(OC)nc3-c3ccc4c(c3)CC(C)(C)O4)CC2)cc1` [Example 60, 1-[2-(2,2-dimethyl-2,3-dihydro-1-benzofuran-5-yl)-6-methoxypyridin-3-yl]-4-(4-methoxyphenyl)piperazine], for which the activity at 1 µM was found to be 218%.
The same measure, in the same setting: the result for `CCOc1ccc(-c2nc(OC)ccc2N2CCN(c3ccc(OC)cc3)CC2)cc1F` [Example 62, 1-[2-(4-ethoxy-3-fluorophenyl)-6-methoxypyridin-3-yl]-4-(4-methoxyphenyl)piperazine] reads 439%; that for `COc1ccc(C2(O)CCN(c3ccc(OC)nc3-c3ccc(OC(F)(F)F)cc3)CC2)cc1` [Example 75, 4-(4-methoxyphenyl)-1-{6-methoxy-2-[4-(trifluoromethoxy)phenyl]pyridin-3-yl}piperidin-4-ol], 249%.
The same measure, in the same setting: the result for `COc1ccc(N2CCCN(c3ccc(OC)nc3-c3ccc(N(C)C)cc3)CC2)cc1` [Example 85, 4-{6-methoxy-3-[4-(4-methoxyphenyl)-1,4-diazepan-1-yl]pyridin-2-yl}-N,N-dimethylaniline] reads 385%; that for `COc1ccc(N2CCCN(c3ccc(OC)nc3-c3ccc(N(C)C)cc3)CC2)c(F)c1` [Example 87, 4-{3-[4-(2-fluoro-4-methoxyphenyl)-1,4-diazepan-1-yl]-6-methoxypyridin-2-yl}-N,N-dimethylaniline], 224%; that for `COc1ccc(N2CCCN(c3ccc(OC)c(OC)c3)CC2)c(-c2ccc(N(C)C)cc2)n1` [Example 89, 4-{3-[4-(3,4-dimethoxyphenyl)-1,4-diazepan-1-yl]-6-methoxypyridin-2-yl}-N,N-dimethylaniline], 379%.
Turning to `COc1ccc(N2CCN(c3ccc(OC)nc3-c3ccc(N(C)C)cc3)CCC2=O)cc1` [Example 92, 1-{2-[4-(dimethylamino)phenyl]-6-methoxypyridin-3-yl}-4-(4-methoxyphenyl)-1,4-diazepan-5-one], the activity at 1 µM came out at 449%.
As for `COc1ccc(C2CCN(c3ccc(OC)nc3-c3ccc(N(C)C)cc3)CCN2C)cc1` (stereo not shown) [Example 98, 4-{6-methoxy-3-[5-(4-methoxyphenyl)-4-methyl-1,4-diazepan-1-yl]pyridin-2-yl}-N,N-dimethylaniline], the activity at 1 µM came out at 397%.
Same read-out and setting: the result for `CCOc1ccc(-c2nc(OC)ccc2N2CCC(c3ccc(OC)cc3)N(CC)CC2)cc1` (stereo not shown) [Example 108, 1-[2-(4-ethoxyphenyl)-6-methoxypyridin-3-yl]-4-ethyl-5-(4-methoxyphenyl)-1,4-diazepane] reads 773%; that for `CCOc1ccc(-c2nc(OC)ccc2N2CCN(c3ccc(OC)cc3)CC2)c(F)c1` [Example 113, 1-[2-(4-ethoxy-2-fluorophenyl)-6-methoxypyridin-3-yl]-4-(4-methoxyphenyl)piperazine], 717%.
For the compound `COc1ccc(N2CCN(c3ccc(OC)nc3-c3ccc(N(C)C)cc3)CC(C)C2=O)cc1` (stereo not shown) [Example 118, 1-{2-[4-(dimethylamino)phenyl]-6-methoxypyridin-3-yl}-4-(4-methoxyphenyl)-6-methyl-1,4-diazepan-5-one], the activity at 1 µM was 528%.
Same read-out and setting: for `COc1ccc(N2CCN(c3ccc(OC)nc3-c3ccc(N(C)C)cc3)CC(C)(C)C2)cc1` [Example 119, 4-{6-methoxy-3-[4-(4-methoxyphenyl)-6,6-dimethyl-1,4-diazepan-1-yl]pyridin-2-yl}-N,N-dimethylaniline] the value was 760%.
Still for that read-out and setting: for `COc1ccc(N2CCN(c3ccc(OC)nc3-c3ccc(N(C)C)cc3)CCC2C)cc1` (stereo not shown) [Example 134, 4-{6-methoxy-3-[4-(4-methoxyphenyl)-5-methyl-1,4-diazepan-1-yl]pyridin-2-yl}-N,N-dimethylaniline] the value was 630%; for `COc1ccc(N2CCN(c3c(C)cc(OC)nc3-c3ccc(N(C)C)cc3)CC2)cc1` [Example 159, 4-{6-methoxy-3-[4-(4-methoxyphenyl)piperazin-1-yl]-4-methylpyridin-2-yl}-N,N-dimethylaniline], 611%.
Regarding `COc1ccc(N2CCN(c3ccc(OC)nc3-c3ccoc3)CC2)cc1` [Example 160, 1-(2-furan-3-yl-6-methoxypyridin-3-yl)-4-(4-methoxyphenyl)piperazine], the activity at 1 µM came to 220%.
Turning to `CCOc1ccc(-c2nc(OC)cc(C)c2N2CCN(c3ccc(OC)cc3)CC2)cn1` [Example 168, 6′-ethoxy-6-methoxy-3-[4-(4-methoxyphenyl)piperazin-1-yl]-4-methyl-2,3′-bipyridine], the activity at 1 µM is 584%.
Take `COc1ccc(N2CCN(c3ccc(OC)nc3-c3cnn(C)c3)CC2)cc1` [Example 169, 1-[6-methoxy-2-(1-methyl-1H-pyrazol-4-yl)pyridin-3-yl]-4-(4-methoxyphenyl)piperazine]: the activity at 1 µM came to 255%.

The record behind these values is patent publication US20130005710A1, “AMINOPYRIDINE DERIVATIVE” (priority 2009, published 2013).
